The structures appear in SMILES notation. pIC50: −log10 of the molar value. A value given as a limit tells only on which side of the number the result lay.

We go through 32 compounds from the Kinase Knowledgebase extract (Sharma et al. 2016).

The target of experiment [1] is EGFR (human) (UniProt P00533). The following applies: A431.
In experiment [2] the target is EGFR (human) (UniProt P00533). The following applies: a431.
Experiment [3] concerns the target EGFR (human) (UniProt P00533). The following applies: a431. This is another data set of the same source.
Experiment [4] deals with EGFR (human) (UniProt P00533). The following applies: a431. This is another data set of the same source.

Sequence of EGFR (human) (P00533 whole entry, looked up): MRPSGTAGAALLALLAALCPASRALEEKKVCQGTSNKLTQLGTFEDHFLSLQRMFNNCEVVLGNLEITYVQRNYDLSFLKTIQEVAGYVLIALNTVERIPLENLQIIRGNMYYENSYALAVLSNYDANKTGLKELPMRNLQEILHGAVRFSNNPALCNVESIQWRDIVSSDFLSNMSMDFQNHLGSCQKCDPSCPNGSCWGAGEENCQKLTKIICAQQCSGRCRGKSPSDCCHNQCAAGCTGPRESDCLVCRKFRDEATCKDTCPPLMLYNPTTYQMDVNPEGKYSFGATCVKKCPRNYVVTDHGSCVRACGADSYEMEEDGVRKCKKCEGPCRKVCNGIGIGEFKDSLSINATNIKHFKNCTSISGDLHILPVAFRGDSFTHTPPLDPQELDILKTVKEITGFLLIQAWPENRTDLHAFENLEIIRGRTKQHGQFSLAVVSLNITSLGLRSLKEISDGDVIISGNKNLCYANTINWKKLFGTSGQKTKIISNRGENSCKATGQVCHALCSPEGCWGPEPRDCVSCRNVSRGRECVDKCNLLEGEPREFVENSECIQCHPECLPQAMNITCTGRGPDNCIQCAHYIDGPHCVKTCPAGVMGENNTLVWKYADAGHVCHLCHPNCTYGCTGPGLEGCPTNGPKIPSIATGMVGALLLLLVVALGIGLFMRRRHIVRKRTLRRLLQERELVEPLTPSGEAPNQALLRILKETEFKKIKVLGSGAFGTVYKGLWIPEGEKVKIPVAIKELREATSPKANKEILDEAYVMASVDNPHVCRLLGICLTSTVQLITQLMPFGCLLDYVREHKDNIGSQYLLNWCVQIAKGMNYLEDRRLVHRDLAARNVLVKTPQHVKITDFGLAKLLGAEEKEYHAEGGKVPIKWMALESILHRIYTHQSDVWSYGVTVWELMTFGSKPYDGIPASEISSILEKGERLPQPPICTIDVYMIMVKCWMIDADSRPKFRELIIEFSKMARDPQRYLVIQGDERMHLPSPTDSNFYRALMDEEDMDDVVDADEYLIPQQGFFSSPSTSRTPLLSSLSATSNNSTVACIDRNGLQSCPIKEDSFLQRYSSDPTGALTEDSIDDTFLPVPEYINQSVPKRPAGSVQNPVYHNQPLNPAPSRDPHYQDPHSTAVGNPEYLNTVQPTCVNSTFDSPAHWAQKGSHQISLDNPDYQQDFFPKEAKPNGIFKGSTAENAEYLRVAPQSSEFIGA

Consider `COc1ccc(CNc2ncnc3cc(OC)c(OC)cc23)cc1OC`, for which the pIC50 is 4.50 on EGFR (human) [1], 4.52 at EGFR (human) [2] and 4.57 against EGFR (human) [3].

As for `COc1cc2ncnc(N3CCN(c4ccccc4OC)CC3)c2cc1OC`, the inhibition on EGFR (human) [1] amounted to 0. For the same compound, the negative-log IC50 (pIC50) is 5.68 at EGFR (human) [2] and 5.85 at EGFR (human) [3].

Turning to `COc1ccc(CCNc2ncnc3cc(OC)c(OC)cc23)cc1OC`, the inhibition on EGFR (human) [1] was found to be 0. Further, the negative-log IC50 (pIC50) against EGFR (human) [2] is 4.52; at EGFR (human) [3], 4.58.

Regarding `COc1cccc(Nc2ncnc3cc(OC)c(OC)cc23)c1`, the pIC50 at EGFR (human) [4] is 6.15; at EGFR (human) [1], 5.80; at EGFR (human) [2], 4.11; against EGFR (human) [3] it was 4.93.

The compound `COc1cc2ncnc(N3CCN(c4ccccc4F)CC3)c2cc1OC` gave an inhibition against EGFR (human) [1] of 0. Besides, the pIC50 against EGFR (human) [2] and against EGFR (human) [3] was under 4.00 each time.

The compound `COc1cc2ncnc(N3CCNCC3)c2cc1OC` displayed an inhibition at EGFR (human) [1] of 0. In addition, the pIC50 against EGFR (human) [2] and on EGFR (human) [3] was under 4.00 each time.

`COc1cc2ncnc(N3CCN(c4cccc(Cl)c4)CC3)c2cc1OC` gave an inhibition on EGFR (human) [1] of 0. Moreover, the negative logarithm of the IC50 (pIC50) against EGFR (human) [2] and on EGFR (human) [3] was under 4.00 each time.

In the case of `COc1cc2ncnc(N3CCN(c4cccc(C(F)(F)F)c4)CC3)c2cc1OC`, the inhibition at EGFR (human) [1] turned out to be 0. Moreover, the negative-log IC50 (pIC50) against EGFR (human) [2] was 5.41; against EGFR (human) [3], 5.33.

Take `COc1ccc(CCCNc2ncnc3cc(OC)c(OC)cc23)cc1OC`: the inhibition on EGFR (human) [1] turned out to be 0. The negative logarithm of the IC50 (pIC50) was 5.52 against EGFR (human) [2] and 4.64 against EGFR (human) [3].

Consider `COc1cc2ncnc(N3CCSCC3)c2cc1OC`, for which the inhibition against EGFR (human) [1] worked out at 0. In addition, the pIC50 at EGFR (human) [2] and against EGFR (human) [3] was under 4.00 each time.

Turning to `COc1cc2ncnc(N3CCN(c4ccccc4C)CC3)c2cc1OC`, the inhibition against EGFR (human) [1] turned out to be 0. The pIC50 at EGFR (human) [2] and on EGFR (human) [3] was under 4.00 each time.

`COc1cc2ncnc(Nc3ccccc3[N+](=O)[O-])c2cc1OC`: the pIC50 against EGFR (human) [4] was 6.25; against EGFR (human) [1], 7.36; against EGFR (human) [2] it was under 4.00; against EGFR (human) [3] it was 5.36.

With `COc1cc2nc(N3CCOCC3)nc(N3CCOCC3)c2cc1OC`, the inhibition against EGFR (human) [1] was determined as 0. The negative logarithm of the IC50 (pIC50) at EGFR (human) [2] and at EGFR (human) [3] was under 4.00 each time.

For `COc1cc2ncnc(N3CCN(c4ccc([N+](=O)[O-])cc4)CC3)c2cc1OC`, the pIC50 is 7.77 at EGFR (human) [1], under 4.00 at EGFR (human) [2] and 4.39 on EGFR (human) [3].

Compound `COc1cc2ncnc(N3CCN(c4ccc(F)cc4)CC3)c2cc1OC` had an inhibition at EGFR (human) [1] of 0. Moreover, the pIC50 against EGFR (human) [2] and on EGFR (human) [3] was under 4.00 each time.

With `COc1ccc(Nc2ncnc3cc(OC)c(OC)cc23)cc1OC`, the pIC50 was 5.03 against EGFR (human) [1], under 4.00 against EGFR (human) [2] and under 4.00 on EGFR (human) [3].

On to `COc1cc2ncnc(N3CCS(=O)(=O)CC3)c2cc1OC`, for which the inhibition against EGFR (human) [1] is 0. Besides, the negative logarithm of the IC50 (pIC50) against EGFR (human) [2] and at EGFR (human) [3] was under 4.00 each time.

On to `COc1cc2nc(Nc3cccc(Br)c3)nc(Nc3cccc(Br)c3)c2cc1OC`, for which the inhibition at EGFR (human) [1] came to 0. Also, the pIC50 on EGFR (human) [2] was 4.60; at EGFR (human) [3], 4.88.

In the case of `COc1cc2ncnc(N3CCN(c4ccc(Cl)cc4)CC3)c2cc1OC`, the pIC50 is 8.33 against EGFR (human) [1], 4.07 against EGFR (human) [2] and 4.61 on EGFR (human) [3].

With `COc1cc2ncnc(N(C)c3cccc(Br)c3)c2cc1OC`, the inhibition against EGFR (human) [4] and against EGFR (human) [1] was 0 each time.

At EGFR (human) [1], `COc1cc2ncnc(N3CCN(c4ccccc4Cl)CC3)c2cc1OC` registered an inhibition of 0. For the same compound, the results for the negative-log IC50 (pIC50) on EGFR (human) [2] and against EGFR (human) [3] were 4.84 and 4.86, respectively.

`COc1cc2c(Nc3cccc(Br)c3)nc3nnnn3c2cc1OC` had an inhibition against EGFR (human) [1] of 0. Moreover, the pIC50 against EGFR (human) [2] and at EGFR (human) [3] was under 4.00 in each case.

On to `COc1cc2ncnc(N3CCOCC3)c2cc1OC`, for which the inhibition against EGFR (human) [1] amounted to 0. The pIC50 on EGFR (human) [2] and against EGFR (human) [3] was under 4.00 each time.

As to `COc1cc2ncnc(N3CCN(c4ccccc4)CC3)c2cc1OC`, at EGFR (human) [1], the inhibition is 0. Moreover, the negative logarithm of the IC50 (pIC50) on EGFR (human) [2] was 4.47; on EGFR (human) [3] it was 4.51.

Regarding `COc1ccc(CCCCNc2ncnc3cc(OC)c(OC)cc23)cc1OC`, the inhibition against EGFR (human) [1] was found to be 0. Besides, the pIC50 against EGFR (human) [2] and against EGFR (human) [3] was under 4.00 each time.

Turning to `COc1cc2ncnc(N3CCN(Cc4ccccc4)CC3)c2cc1OC`, the negative-log IC50 (pIC50) on EGFR (human) [1] is 4.75; against EGFR (human) [2], 4.46; at EGFR (human) [3], 4.66.

As for `COc1cccc(N2CCN(c3ncnc4cc(OC)c(OC)cc34)CC2)c1`, at EGFR (human) [1], the inhibition turned out to be 0. The pIC50 against EGFR (human) [2] is 4.23; at EGFR (human) [3] it was 4.41.

At EGFR (human) [1], `COc1cc2ncnc(N3CCN(c4ccccn4)CC3)c2cc1OC` displayed an inhibition of 0. Also, the negative logarithm of the IC50 (pIC50) is 4.17 at EGFR (human) [2] and 4.20 at EGFR (human) [3].

`COc1cc2nc3nccn3c(Nc3cccc(Br)c3)c2cc1OC`: the inhibition against EGFR (human) [1] amounted to 0. Moreover, the negative logarithm of the IC50 (pIC50) at EGFR (human) [2] was 5.18; at EGFR (human) [3], 5.17.

`COc1cc2nc(Nc3cccc(Br)c3)n3nnnc3c2cc1OC` returned an inhibition on EGFR (human) [1] of 0. Besides, the pIC50 against EGFR (human) [2] and against EGFR (human) [3] was under 4.00 throughout.

`COc1ccc(N2CCN(c3ncnc4cc(OC)c(OC)cc34)CC2)cc1`: at EGFR (human) [1], the inhibition is 0. The pIC50 against EGFR (human) [2] and against EGFR (human) [3] was under 4.00 in each case.

Turning to `COc1cc2ncnc(NCCNc3ccccc3)c2cc1OC`, the pIC50 was 4.50 against EGFR (human) [1], under 4.00 at EGFR (human) [2] and under 4.00 on EGFR (human) [3].
